# System: yeast genes (level of expressed mRNA)
# Assay: DNA chip analysis of expressed mRNA of yeast genes after 2 h culture with a toxic chemical substance
# Assay type: cell-based, Saccharomyces cerevisiae S288C
# Protocol: Yeast (Saccharomyces cerevtisiae S288C (α SUC2mal mel gap2 CUP1)) were cultured at 25° C. on YPD medium (yeast extract 1%, polypepton 2%, glucose 2%). One of toxic chemical substances was added to the cell at logarithmic growth phase, and the cell was further cultured for two hours. Cell was cultured without any chemical substance in the same condition, and was used as control. Concentrations of the chemical substances were defined to inhibit the growth of the yeast but not lead to death.
# After the completion of cultivation, the culture was centrifuged to collect the cells. To the cells, sodium acetate buffer (50 mM sodium acetate, 10 mM EDTA, 1% SDS) was added, and the mixture was shaken at 65° C. for five minutes, followed by returning to room temperature, and obtaining the supernatant, which procedure was repeated two times. To the supernatant, ½ amount of a solution of phenol/chloroform was added, and the mixture was centrifuged to give a supernatant, which was added with an equal amount of chloroform, and the mixture was centrifuged to give a supernatant. To the supernatant, an equal amount of isopropanol containing 0.3 M sodium acetate was added, and the mixture was allowed to stand at room temperature for 30 minutes, after which the mixture was centrifuged to give a sediment of the whole RNAs. Seventy % ethanol was added to the sediment, and the mixture was again centrifuged to give a sediment, which was then dried and dissolved in water. mRNA was isolated from the whole RNAs as followings. In view of the fact that a poly A chain is attached to the 3′ terminus of mRNA, a polynucleotide having a poly T structure which was immobilized on the surface of latex beads was used to trap the mRNA, and then the mRNA was washed and eluted with spine column (Oligotex-dT30<Super>mRNA Purification Kit, Takara). Reverse transcription of the mRNA was conducted with a reverse transcriptase (Super Script II Reverse Transcriptase; catalogue No. 18064-014, GibcoBRL) using fluorescence-labeled nucleotides to give cDNAs that were introduced with Cy3-dUTP or Cy5-dUTP during the reverse transcription.
# The labeled cDNAs were dissolved in TE buffer (10 mM Tris-HCl/1 mM EDTA, pH8.0), and the solution was dropped on the DNA chip containing the whole genes of yeast (DNA Chip Research Inc. Japan) so that the cDNAs were hybridized on the DNA chip at 65° C. for over 12 hours. The fluoresces intensity of the DNA chip was read with a scanner, and the ratio relative to the fluorescence intensity resulting from the absence of chemical substance was estimated as the following, which is shown in Tables 1 to 9: [formula]
# In the Tables, “Intensity” indicated in the rightmost column is a value of the level of expressed mRNA of each gene in control cells as divided by the average level of the expressions of the whole genes.
smiles,measurement,setting,value
"N#Cc1c(Cl)c(Cl)c(Cl)c(C#N)c1Cl [(9), 2,4,5,6-tetrachloro-1,3-benzenedicarbonitrile]",The level of expressed mRNA in the presence of chemical substance/The level of expressed mRNA in the absence of chemical substance,yeast gene YKL039W,1.3
same,The level of expressed mRNA in the presence of chemical substance/The level of expressed mRNA in the absence of chemical substance,yeast gene YKL041W,1.6
same,The level of expressed mRNA in the presence of chemical substance/The level of expressed mRNA in the absence of chemical substance,yeast gene YKL139W,1.6
same,The level of expressed mRNA in the presence of chemical substance/The level of expressed mRNA in the absence of chemical substance,yeast gene YKL165C,0.4
same,The level of expressed mRNA in the presence of chemical substance/The level of expressed mRNA in the absence of chemical substance,yeast gene YKL193C,1.0
same,The level of expressed mRNA in the presence of chemical substance/The level of expressed mRNA in the absence of chemical substance,yeast gene YKR014C,2.4
same,The level of expressed mRNA in the presence of chemical substance/The level of expressed mRNA in the absence of chemical substance,yeast gene YLR093C,1.5
same,The level of expressed mRNA in the presence of chemical substance/The level of expressed mRNA in the absence of chemical substance,yeast gene YLR120C,1.8
same,The level of expressed mRNA in the presence of chemical substance/The level of expressed mRNA in the absence of chemical substance,yeast gene YLR136C,0.9
same,The level of expressed mRNA in the presence of chemical substance/The level of expressed mRNA in the absence of chemical substance,yeast gene YLR178C,4.3
same,The level of expressed mRNA in the presence of chemical substance/The level of expressed mRNA in the absence of chemical substance,yeast gene YLR250W,2.7
same,The level of expressed mRNA in the presence of chemical substance/The level of expressed mRNA in the absence of chemical substance,yeast gene YLR327C,3.0
same,The level of expressed mRNA in the presence of chemical substance/The level of expressed mRNA in the absence of chemical substance,yeast gene YLR356W,2.3
same,The level of expressed mRNA in the presence of chemical substance/The level of expressed mRNA in the absence of chemical substance,yeast gene YLR362W,3.5
same,The level of expressed mRNA in the presence of chemical substance/The level of expressed mRNA in the absence of chemical substance,yeast gene YLR391W,0.4
same,The level of expressed mRNA in the presence of chemical substance/The level of expressed mRNA in the absence of chemical substance,yeast gene YLR429W,0.9
same,The level of expressed mRNA in the presence of chemical substance/The level of expressed mRNA in the absence of chemical substance,yeast gene YMR004W,94.2
same,The level of expressed mRNA in the presence of chemical substance/The level of expressed mRNA in the absence of chemical substance,yeast gene YMR104C,0.6
same,The level of expressed mRNA in the presence of chemical substance/The level of expressed mRNA in the absence of chemical substance,yeast gene YMR219W,2.3
same,The level of expressed mRNA in the presence of chemical substance/The level of expressed mRNA in the absence of chemical substance,yeast gene YMR226C,2.6
same,The level of expressed mRNA in the presence of chemical substance/The level of expressed mRNA in the absence of chemical substance,yeast gene YMR275C,2.4
same,The level of expressed mRNA in the presence of chemical substance/The level of expressed mRNA in the absence of chemical substance,yeast gene YMR276W,1.8
same,The level of expressed mRNA in the presence of chemical substance/The level of expressed mRNA in the absence of chemical substance,yeast gene YMR314W,5.9
same,The level of expressed mRNA in the presence of chemical substance/The level of expressed mRNA in the absence of chemical substance,yeast gene YNL006W,4.0
same,The level of expressed mRNA in the presence of chemical substance/The level of expressed mRNA in the absence of chemical substance,yeast gene YNL007C,3.0
same,The level of expressed mRNA in the presence of chemical substance/The level of expressed mRNA in the absence of chemical substance,yeast gene YNL093W,1.7
same,The level of expressed mRNA in the presence of chemical substance/The level of expressed mRNA in the absence of chemical substance,yeast gene YNL333W,2.3
same,The level of expressed mRNA in the presence of chemical substance/The level of expressed mRNA in the absence of chemical substance,yeast gene YNR010W,1.7
same,The level of expressed mRNA in the presence of chemical substance/The level of expressed mRNA in the absence of chemical substance,yeast gene YNR069C,5.5
same,The level of expressed mRNA in the presence of chemical substance/The level of expressed mRNA in the absence of chemical substance,yeast gene YOL013C,0.8
same,The level of expressed mRNA in the presence of chemical substance/The level of expressed mRNA in the absence of chemical substance,yeast gene YOL164W,4.9
same,The level of expressed mRNA in the presence of chemical substance/The level of expressed mRNA in the absence of chemical substance,yeast gene YOR036W,1.2
same,The level of expressed mRNA in the presence of chemical substance/The level of expressed mRNA in the absence of chemical substance,yeast gene YOR117W,3.5
same,The level of expressed mRNA in the presence of chemical substance/The level of expressed mRNA in the absence of chemical substance,yeast gene YOR124C,2.0
same,The level of expressed mRNA in the presence of chemical substance/The level of expressed mRNA in the absence of chemical substance,yeast gene YOR132W,2.8
same,The level of expressed mRNA in the presence of chemical substance/The level of expressed mRNA in the absence of chemical substance,yeast gene YOR157C,5.7
same,The level of expressed mRNA in the presence of chemical substance/The level of expressed mRNA in the absence of chemical substance,yeast gene YOR181W,0.6
same,The level of expressed mRNA in the presence of chemical substance/The level of expressed mRNA in the absence of chemical substance,yeast gene YOR185C,1.9
same,The level of expressed mRNA in the presence of chemical substance/The level of expressed mRNA in the absence of chemical substance,yeast gene YOR198C,2.4
same,The level of expressed mRNA in the presence of chemical substance/The level of expressed mRNA in the absence of chemical substance,yeast gene YOR259C,2.7
same,The level of expressed mRNA in the presence of chemical substance/The level of expressed mRNA in the absence of chemical substance,yeast gene YOR261C,5.5
same,The level of expressed mRNA in the presence of chemical substance/The level of expressed mRNA in the absence of chemical substance,yeast gene YOR288C,0.9
same,The level of expressed mRNA in the presence of chemical substance/The level of expressed mRNA in the absence of chemical substance,yeast gene YOR355W,0.1
same,The level of expressed mRNA in the presence of chemical substance/The level of expressed mRNA in the absence of chemical substance,yeast gene YOR383C,1.2
same,The level of expressed mRNA in the presence of chemical substance/The level of expressed mRNA in the absence of chemical substance,yeast gene YPL089C,0.4
same,The level of expressed mRNA in the presence of chemical substance/The level of expressed mRNA in the absence of chemical substance,yeast gene YPL109C,1.2
same,The level of expressed mRNA in the presence of chemical substance/The level of expressed mRNA in the absence of chemical substance,yeast gene YPL149W,5.6
same,The level of expressed mRNA in the presence of chemical substance/The level of expressed mRNA in the absence of chemical substance,yeast gene YPL154C,2.8
same,The level of expressed mRNA in the presence of chemical substance/The level of expressed mRNA in the absence of chemical substance,yeast gene YPR103W,5.5
same,The level of expressed mRNA in the presence of chemical substance/The level of expressed mRNA in the absence of chemical substance,yeast gene YPR108W,3.7
